Laboratory results published in US11401277B2, “Anti-bacterial heterocyclic compounds and their synthesis” (Bugworks Research, Inc., priority 2017, dated 2022).
Converted amounts (≈) assume the structure as drawn. “And” between values parts separate entries of the source, which are not always exact repeats. Equal values may be shown once.

What was measured:
A. baumannii ATCC 19606 = assay: MIC studies in LB Media; format: cell-based; settings: Acinetobacter baumannii, ATCC19606, read-out: Minimum Inhibitory Concentration in LB Media, A. ba
Protocol: (§1) Bacterial cultures that were stored as glycerol stocks at −80° C. were sub cultured on LB agar plates to obtain isolated colonies. A single colony of each strain was cultured in LB broth. The cultures were incubated at 37° C., 200 rpm till they reach an optical density (OD at 600 nm) of 0.8 to 1. […] Test compounds were dissolved in dimethyl sulfoxide (DMSO) to a stock concentration of 4 mg/ml. A two-fold dilution series of this DMSO stock was prepared in a 96 well V bottom microtitre plate from rows A to H. A 3 μL volume of these dilutions were transferred to a 96-well flat bottom microtitre assay plate. Controls to monitor the effects of DMSO and media sterility were included. Each well was inoculated with 150 μL of the above diluted culture. The plates were incubated at 37° C. overnight in a humidified incubator. The following morning, the plates were read using a Spectrophotometer at 600 nm wavelength.

[1] = system: Citrobacter freundii ATCC 43864; assay: MIC studies in LB Media; format: cell-based; settings: ATCC43864, read-out: Minimum Inhibitory Concentration in LB Media, C. fr
Protocol: as §1

E. coli ATCC 25922 = assay: MIC studies in LB Media; format: cell-based; settings: Escherichia coli, ATCC25922, read-out: Minimum Inhibitory Concentration in LB Media, E. co
Protocol: as §1

E. faecalis ATCC 29212 = assay: MIC studies in LB Media; format: cell-based; settings: Enterococcus faecalis, ATCC29212, read-out: Minimum Inhibitory Concentration in LB Media, E. fa
Protocol: as §1

[2] = system: Enterobacter cloacae ATCC 13047; assay: MIC studies in LB Media; format: cell-based; settings: ATCC13047, read-out: Minimum Inhibitory Concentration in LB Media, E. cl
Protocol: as §1

K. pneumoniae ATCC 13883 = assay: MIC studies in LB Media; format: cell-based; settings: Klebsiella pneumoniae, ATCC13883, read-out: Minimum Inhibitory Concentration in LB Media, K. pn
Protocol: as §1

[3] = system: Morganella morganii ATCC 25830; assay: MIC studies in LB Media; format: cell-based; settings: ATCC25830, read-out: Minimum Inhibitory Concentration in LB Media, M. mo
Protocol: as §1

P. aurigenosa ATCC 27853 = assay: MIC studies in LB Media; format: cell-based; settings: Pseudomonas aeruginosa, ATCC27853, read-out: Minimum Inhibitory Concentration in LB Media, P. ae
Protocol: as §1

[4] = system: Proteus mirabilis ATCC 43071; assay: MIC studies in LB Media; format: cell-based; settings: ATCC43071, read-out: Minimum Inhibitory Concentration in LB Media, P. mi
Protocol: as §1

S. aureus ATCC 29213 = assay: MIC studies in LB Media; format: cell-based; settings: Staphylococcus aureus, ATCC29213, MIC = 90% inhibition of growth, read-out: Minimum Inhibitory Concentration in LB Media, S. au
Protocol: as §1

E. coli DNA gyrase = E. coli DNA gyrase (Escherichia coli, UniProt P0AES4+P0AES6); assay: biochemical; settings: gel based supercoiling assay; read-out: E. coli DNA Gyrase IC50
E. coli DNA gyrase, sequence (P0AES4 whole entry, one chain of several): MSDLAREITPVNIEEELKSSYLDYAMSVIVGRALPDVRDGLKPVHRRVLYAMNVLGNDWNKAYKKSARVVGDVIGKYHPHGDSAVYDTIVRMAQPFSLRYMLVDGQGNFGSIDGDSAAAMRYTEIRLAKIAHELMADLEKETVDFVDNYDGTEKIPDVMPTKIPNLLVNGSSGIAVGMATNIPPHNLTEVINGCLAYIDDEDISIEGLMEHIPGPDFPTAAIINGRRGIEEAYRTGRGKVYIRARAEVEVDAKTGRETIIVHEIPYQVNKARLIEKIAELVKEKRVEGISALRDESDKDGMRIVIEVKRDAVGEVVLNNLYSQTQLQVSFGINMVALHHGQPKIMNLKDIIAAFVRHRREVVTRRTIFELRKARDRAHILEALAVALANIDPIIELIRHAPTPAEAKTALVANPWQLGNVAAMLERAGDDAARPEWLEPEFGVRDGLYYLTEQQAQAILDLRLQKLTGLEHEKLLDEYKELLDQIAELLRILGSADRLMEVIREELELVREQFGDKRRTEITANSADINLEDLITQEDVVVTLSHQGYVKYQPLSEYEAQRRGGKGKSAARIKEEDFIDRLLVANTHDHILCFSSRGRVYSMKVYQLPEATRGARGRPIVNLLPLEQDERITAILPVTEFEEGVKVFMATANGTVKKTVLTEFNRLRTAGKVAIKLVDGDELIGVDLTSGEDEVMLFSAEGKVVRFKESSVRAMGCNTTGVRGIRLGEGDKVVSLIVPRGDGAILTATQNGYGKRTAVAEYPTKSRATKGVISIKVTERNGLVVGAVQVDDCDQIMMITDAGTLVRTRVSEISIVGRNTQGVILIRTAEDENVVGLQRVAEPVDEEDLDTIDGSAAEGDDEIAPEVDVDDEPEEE

E. coli topoisomerase IV = E. coli topoisomerase IV (Escherichia coli, UniProt P0AFI2+P20083); assay: biochemical; settings: gel based decatenation assay; read-out: E. coli Topo IV IC50
E. coli topoisomerase IV, sequence (P20083 whole entry): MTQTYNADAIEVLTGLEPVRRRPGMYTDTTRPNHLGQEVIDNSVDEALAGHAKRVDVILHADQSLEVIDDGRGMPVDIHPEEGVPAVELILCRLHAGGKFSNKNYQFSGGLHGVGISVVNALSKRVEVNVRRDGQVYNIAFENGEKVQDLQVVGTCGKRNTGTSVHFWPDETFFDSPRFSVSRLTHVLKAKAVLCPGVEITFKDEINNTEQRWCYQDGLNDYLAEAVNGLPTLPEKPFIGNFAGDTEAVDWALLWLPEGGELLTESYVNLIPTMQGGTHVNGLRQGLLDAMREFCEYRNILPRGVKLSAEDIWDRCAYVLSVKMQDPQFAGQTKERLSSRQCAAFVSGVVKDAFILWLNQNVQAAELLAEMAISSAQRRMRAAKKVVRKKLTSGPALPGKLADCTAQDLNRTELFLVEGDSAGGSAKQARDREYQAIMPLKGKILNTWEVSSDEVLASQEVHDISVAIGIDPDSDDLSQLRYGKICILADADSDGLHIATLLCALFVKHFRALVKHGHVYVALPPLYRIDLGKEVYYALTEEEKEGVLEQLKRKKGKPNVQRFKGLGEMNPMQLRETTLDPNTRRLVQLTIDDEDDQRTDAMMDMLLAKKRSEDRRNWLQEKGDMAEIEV
E. coli topoisomerase IV, sequence (P0AFI2 whole entry): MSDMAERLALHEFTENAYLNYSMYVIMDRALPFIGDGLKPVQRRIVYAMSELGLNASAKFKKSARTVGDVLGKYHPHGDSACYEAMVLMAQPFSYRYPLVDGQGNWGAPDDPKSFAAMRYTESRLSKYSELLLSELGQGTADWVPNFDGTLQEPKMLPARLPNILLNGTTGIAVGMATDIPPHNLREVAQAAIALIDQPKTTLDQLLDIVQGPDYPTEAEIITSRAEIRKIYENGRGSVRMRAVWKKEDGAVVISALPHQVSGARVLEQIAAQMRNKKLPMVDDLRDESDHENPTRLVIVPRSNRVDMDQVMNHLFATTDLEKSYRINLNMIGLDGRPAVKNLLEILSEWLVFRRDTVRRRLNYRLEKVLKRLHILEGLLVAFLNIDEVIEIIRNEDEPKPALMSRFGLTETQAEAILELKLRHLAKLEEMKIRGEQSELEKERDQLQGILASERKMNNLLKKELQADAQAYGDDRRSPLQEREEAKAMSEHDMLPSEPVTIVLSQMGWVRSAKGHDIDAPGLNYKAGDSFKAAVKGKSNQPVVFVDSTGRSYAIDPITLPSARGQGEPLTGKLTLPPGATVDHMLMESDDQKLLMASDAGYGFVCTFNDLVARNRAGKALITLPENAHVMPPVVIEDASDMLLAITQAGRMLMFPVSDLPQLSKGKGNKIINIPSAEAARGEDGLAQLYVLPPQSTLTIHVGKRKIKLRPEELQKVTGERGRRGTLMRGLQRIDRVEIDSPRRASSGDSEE

hERG potassium channel = biological target: T1, hERG potassium channel (Homo sapiens, UniProt Q12809); assay: hERG inhibition assay, QPatch HTX automated electrophysiology; format: cell-based; settings: CHO cell line expressing hERG; whole-cell patch clamp, room temperature
T1 construct: Chinese Hamster Ovary cell line stably expressing the full-length hERG potassium channel; expressed in transfected cells
T1 sequence (Q12809 whole entry): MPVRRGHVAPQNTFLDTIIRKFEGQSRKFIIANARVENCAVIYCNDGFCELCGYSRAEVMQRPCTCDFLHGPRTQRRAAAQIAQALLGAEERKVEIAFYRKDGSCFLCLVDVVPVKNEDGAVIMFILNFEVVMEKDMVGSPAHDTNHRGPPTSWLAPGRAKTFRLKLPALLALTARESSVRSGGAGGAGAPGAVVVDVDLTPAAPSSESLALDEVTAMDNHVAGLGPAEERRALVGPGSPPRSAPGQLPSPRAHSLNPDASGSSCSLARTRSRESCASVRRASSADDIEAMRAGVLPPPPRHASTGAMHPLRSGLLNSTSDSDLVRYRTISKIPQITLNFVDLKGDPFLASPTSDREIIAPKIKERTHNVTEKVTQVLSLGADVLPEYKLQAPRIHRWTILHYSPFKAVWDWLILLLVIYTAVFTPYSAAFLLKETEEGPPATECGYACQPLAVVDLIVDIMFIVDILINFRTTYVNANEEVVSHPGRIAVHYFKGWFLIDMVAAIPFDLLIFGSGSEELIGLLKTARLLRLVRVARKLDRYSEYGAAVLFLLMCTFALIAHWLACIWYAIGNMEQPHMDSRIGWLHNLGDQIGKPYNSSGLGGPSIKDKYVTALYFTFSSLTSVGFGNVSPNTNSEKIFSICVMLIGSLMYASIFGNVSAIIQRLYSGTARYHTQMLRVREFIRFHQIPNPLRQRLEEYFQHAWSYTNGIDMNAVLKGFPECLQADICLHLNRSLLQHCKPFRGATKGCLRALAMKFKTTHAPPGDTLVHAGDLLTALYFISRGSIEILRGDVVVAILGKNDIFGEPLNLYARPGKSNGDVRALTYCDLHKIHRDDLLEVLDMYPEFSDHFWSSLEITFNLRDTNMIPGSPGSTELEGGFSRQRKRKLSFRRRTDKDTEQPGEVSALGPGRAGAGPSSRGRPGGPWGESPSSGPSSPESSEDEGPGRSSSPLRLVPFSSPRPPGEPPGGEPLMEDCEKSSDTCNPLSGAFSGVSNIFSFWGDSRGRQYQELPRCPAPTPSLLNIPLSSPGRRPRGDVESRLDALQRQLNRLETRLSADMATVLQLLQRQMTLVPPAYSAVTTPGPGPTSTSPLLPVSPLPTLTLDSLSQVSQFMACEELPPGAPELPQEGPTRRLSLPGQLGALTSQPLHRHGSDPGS
Protocol: The compounds were tested for inhibition of the human ether a go-go related gene (hERG) K+ channel using QPatch HTX automated electrophysiology.
Compounds of Formula I were solubilised to 100 mM in DMSO before dilution in HBPS to 300 μM.
Electrophysiological recordings were made from a Chinese Hamster Ovary cell line stably expressing the full-length hERG potassium channel. Single cell ionic currents were measured in whole-cell patch clamp configuration at room temperature (21-23° C.) using the QPatch HTX platform (Sophion). Intracellular solution contained (mM): 120 KF, 20 KCl, 10 EGTA, 10 HEPES and was buffered to pH 7.3. […] Cells were clamped at a holding potential of −80 mV. Cells were stepped to +20 mV for 2 s then −40 mV for 3 s before returning to the holding potential. This sweep was repeated 10 times at 10 s intervals. hERG currents were measured from the tail step and referenced to the holding current. Compounds were then incubated for 2 minutes prior to a second measurement of ion channel current using an identical pulse train.

E. coli [ATCC25922] = assay: Neutropenic Thigh Infection Model in Rat, E. coli; format: in vivo; settings: 10 mg/kg, i.v. bolus
[5] = system: K. pneumoniae [ATCC13883]; assay: Neutropenic Thigh Infection Model in Rat, K. pneumoniae; format: in vivo; settings: 10 mg/kg, i.v. bolus
[6] = individual animals, 10 hr post infection

Row | Structure (SMILES) | MIC (A. baumannii ATCC 19606) [µg/mL] | MIC [1] [µg/mL] | MIC (E. coli ATCC 25922) [µg/mL] | MIC (E. faecalis ATCC 29212) [µg/mL] | MIC [2] [µg/mL] | MIC (K. pneumoniae ATCC 13883) [µg/mL] | MIC [3] [µg/mL] | MIC (P. aurigenosa ATCC 27853) [µg/mL] | MIC [4] [µg/mL] | MIC (S. aureus ATCC 29213) [µg/mL] | IC50 (E. coli DNA gyrase) [nM] | IC50 (E. coli topoisomerase IV) [nM] | IC50 (hERG potassium channel) [µM] | Mean Log 10 CFU/thigh reduction (wrt 2 h PI control: 5.04 Log10CFU/g thigh) (E. coli [ATCC25922]) [Log 10 CFU/thigh] | MEAN ± SD (Log10 CFU/g thigh) (E. coli [ATCC25922]; 10 hr post infection) | Log10 CFU/g thigh (E. coli [ATCC25922]; [6]) | MEAN ± SD (Log10 CFU/g thigh) [5] [Log10 CFU/g thigh] | Mean Log 10 CFU/thigh reduction (wrt 2 h PI control: 5.04 Log10CFU/g thigh) [5] [Log 10 CFU/thigh] | Log10 CFU/g thigh [5, 6]
1 | Cn1c(=O)cnc2ccc(F)c(OCCNC[C@H]3CN(c4cnc5c(n4)NC(=O)CS5)C(=O)O3)c21 [Compound 10, (S)-5-(((2-((6-fluoro-4-methyl-3-oxo-3,4-dihydroquinoxalin-5-yl)oxy)ethyl)amino)methyl)-3-(3-oxo-3,4-dihydro-2H-pyrazino[2,3-b][1,4]thiazin-6-yl)oxazolidin-2-one] | 0.013 (≈ 0.0259 µM) | 0.025 (≈ 0.0499 µM) | 0.025 (≈ 0.0499 µM) | 0.025 (≈ 0.0499 µM) | 0.05 (≈ 0.0997 µM) | 0.025 (≈ 0.0499 µM) | 0.025 (≈ 0.0499 µM) | 0.25 (≈ 0.499 µM) | 0.125 (≈ 0.249 µM) | ≤ 0.003 | 22 | < 370 | 19 | – | – | – | – | – | –
2 | Cn1c(=O)ccc2ncc(Cl)c(OCCNC[C@H]3CN(c4cnc5c(n4)NC(=O)CO5)C(=O)O3)c21 [Compound 6, (S)-6-(5-(((2-((3-chloro-5-methyl-6-oxo-5,6-dihydro-1,5-naphthyridin-4-yl)oxy)ethyl)amino)methyl)-2-oxooxazolidin-3-yl)-2H-pyrazino[2,3-b][1,4]oxazin-3(4H)-one] | > 4 | > 4 | > 4 | > 4 | > 4 | > 4 | > 4 | > 4 | > 4 | > 4 | 6330 | 17700 | – | – | – | – | – | – | –
3 | Cn1c(=O)cnc2ccc(F)c(OCCNC[C@@H]3CN(c4cnc5c(n4)NC(=O)CO5)C(=O)O3)c21 [Compound 8, (R)-6-(5-(((2-((6-fluoro-4-methyl-3-oxo-3,4-dihydroquinoxalin-5-yl)oxy)ethyl)amino)methyl)-2-oxooxazolidin-3-yl)-2H-pyrazino[2,3-b][1,4]oxazin-3(4H)-one] | 0.06 (≈ 0.124 µM) | 0.06 (≈ 0.124 µM) | 0.03 (≈ 0.0618 µM) | 0.06 (≈ 0.124 µM) | 0.125 (≈ 0.258 µM) | 0.06 (≈ 0.124 µM) | 0.03 (≈ 0.0618 µM) | 0.5 (≈ 1.03 µM) | 0.25 (≈ 0.515 µM) | ≤ 0.015 | – | – | 58 | – | – | – | – | – | –
4 | Cn1c(=O)cnc2ccc(F)c(OCCNC[C@H]3CN(c4cnc5c(n4)NC(=O)CO5)C(=O)O3)c21 [Compound 7, (S)-6-(5-(((2-((6-fluoro-4-methyl-3-oxo-3,4-dihydroquinoxalin-5-yl)oxy)ethyl)amino)methyl)-2-oxooxazolidin-3-yl)-2H-pyrazino[2,3-b][1,4]oxazin-3(4H)-one] | 0.06 (≈ 0.124 µM) | 0.06 (≈ 0.124 µM) | 0.03 (≈ 0.0618 µM) | 0.06 (≈ 0.124 µM) | 0.125 (≈ 0.258 µM) | 0.06 (≈ 0.124 µM) | 0.06 (≈ 0.124 µM) | 0.25 (≈ 0.515 µM) | 0.25 (≈ 0.515 µM) | ≤ 0.015 | 15 | < 220 | > 300 | – | – | – | – | – | –
5 | Cc1nc2ccc(F)c(OCCNC[C@H]3CN(c4cnc5c(n4)NC(=O)CO5)C(=O)O3)c2n(C)c1=O [Compound 9, (S)-6-(5-(((2-((6-fluoro-2,4-dimethyl-3-oxo-3,4-dihydroquinoxalin-5-yl)oxy)ethyl)amino)methyl)-2-oxooxazolidin-3-yl)-2H-pyrazino[2,3-b][1,4]oxazin-3(4H)-one] | 0.125 (≈ 0.25 µM) | 0.25 (≈ 0.501 µM) | 0.125 (≈ 0.25 µM) | 0.25 (≈ 0.501 µM) | 1 (≈ 2 µM) | 0.5 (≈ 1 µM) | 0.5 (≈ 1 µM) | 4 (≈ 8.01 µM) | 2 (≈ 4 µM) | ≤ 0.06 | 40 | – | – | – | – | – | – | – | –
6 | Cc1cc(=O)n(C)c2c(OCCNC[C@H]3CN(c4cnc5c(n4)NC(=O)CO5)C(=O)O3)c(F)ccc12 [Compound 5, (S)-6-(5-(((2-((7-fluoro-1,4-dimethyl-2-oxo-1,2-dihydroquinolin-8-yl)oxy)ethyl)amino)methyl)-2-oxooxazolidin-3-yl)-2H-pyrazino[2,3-b][1,4]oxazin-3(4H)-one] | 0.25 (≈ 0.502 µM) | – | 0.06 (≈ 0.12 µM) | 0.125 (≈ 0.251 µM) | – | 0.25 (≈ 0.502 µM) | – | 1 (≈ 2.01 µM) | – | 0.125 (≈ 0.251 µM) | 33 | < 187 | 71 | – | – | – | – | – | –
7 | Cn1c(=O)ccc2ccc(F)c(OCCNC[C@@H]3CN(c4cnc5c(n4)NC(=O)CO5)C(=O)O3)c21 [Compound 3, (R)-6-(5-(((2-((7-fluoro-1-methyl-2-oxo-1,2-dihydroquinolin-8-yl)oxy)ethyl)amino)methyl)-2-oxooxazolidin-3-yl)-2H-pyrazino[2,3-b][1,4]oxazin-3(4H)-one] | 0.06 (≈ 0.124 µM) | 0.06 (≈ 0.124 µM) | 0.06 (≈ 0.124 µM) | 0.06 (≈ 0.124 µM) | 0.125 (≈ 0.258 µM) | 0.06 (≈ 0.124 µM) | 0.03 (≈ 0.0619 µM) | 0.5 (≈ 1.03 µM) | 0.125 (≈ 0.258 µM) | 0.015 (≈ 0.031 µM) | 11 | – | 25 | – | – | – | – | – | –
8 | CC(COc1c(F)ccc2ccc(=O)n(C)c12)NC[C@H]1CN(c2cnc3c(n2)NC(=O)CO3)C(=O)O1 (stereo partly drawn) [Compound 4, 6-((5S)-5-(((1-((7-fluoro-1-methyl-2-oxo-1,2-dihydroquinolin-8-yl)oxy)propan-2-yl)amino)methyl)-2-oxooxazolidin-3-yl)-2H-pyrazino[2,3-b][1,4]oxazin-3(4H)-one] | 0.25 (≈ 0.502 µM) | 0.5 (≈ 1 µM) | 0.25 (≈ 0.502 µM) | 0.125 (≈ 0.251 µM) | 0.5 (≈ 1 µM) | 0.25 (≈ 0.502 µM) | 1 (≈ 2.01 µM) | 2 (≈ 4.01 µM) | 2 (≈ 4.01 µM) | 0.06 (≈ 0.12 µM) | 30 | < 350 | 36 | – | – | – | – | – | –
9 | O=C(O)c1cn(C2CC2)c2cc(N3CCNCC3)c(F)cc2c1=O [Ciprofloxacin, ciprofloxacin, reference compound] | – | – | – | – | – | – | – | – | – | – | – | – | – | 2.12 | 3.73 ± 0.21 | 3.74 Log10 CFU/g thigh and 3.94 Log10 CFU/g thigh and 3.52 Log10 CFU/g thigh | 3.30 ± 0.11 | 1.74 | 3.22 Log10 CFU/g thigh and 3.25 Log10 CFU/g thigh and 3.42 Log10 CFU/g thigh
10 | Cn1c(=O)ccc2nccc(OCCNC[C@H]3CN(c4ccc5c(n4)NC(=O)CO5)C(=O)O3)c21 [Compound 1, (S)-6-(5-(((2-((5-methyl-6-oxo-5,6-dihydro-1,5-naphthyridin-4-yl)oxy)ethyl)amino)methyl)-2-oxooxazolidin-3-yl)-2H-pyrido[3,2-b][1,4]oxazin-3(4H)-one] | 2 (≈ 4.29 µM) | 1 (≈ 2.14 µM) | 0.5 (≈ 1.07 µM) | 1 (≈ 2.14 µM) | 8 (≈ 17.2 µM) | 1 (≈ 2.14 µM) | 2 (≈ 4.29 µM) | 4 (≈ 8.58 µM) | 16 (≈ 34.3 µM) | 0.25 (≈ 0.536 µM) | < 250 | < 250 | > 100 | – | – | – | – | – | –
